Measurements: ChEMBL document CHEMBL1201862, “PubChem BioAssay data set” (2004)
Activity calls are given as the source filed them. For most assays here, no stated cut-off is given here; in the data, actives have a measured EC50 and inactives only a lower limit.

Tests used:
Protein RecA = molecular target: T1, Protein RecA (Mycobacterium tuberculosis, UniProt P9WHJ3); experiment: Fluorescence Cell-Free Homogeneous Dose Retest to Identify Inhibitors of RecA-Intein Splicing Activity. [Related pubchem assays (depositor defined):AID2097, AID2223, AID489010, AID492950]; format: functional
T1 sequence (P9WHJ3 whole entry): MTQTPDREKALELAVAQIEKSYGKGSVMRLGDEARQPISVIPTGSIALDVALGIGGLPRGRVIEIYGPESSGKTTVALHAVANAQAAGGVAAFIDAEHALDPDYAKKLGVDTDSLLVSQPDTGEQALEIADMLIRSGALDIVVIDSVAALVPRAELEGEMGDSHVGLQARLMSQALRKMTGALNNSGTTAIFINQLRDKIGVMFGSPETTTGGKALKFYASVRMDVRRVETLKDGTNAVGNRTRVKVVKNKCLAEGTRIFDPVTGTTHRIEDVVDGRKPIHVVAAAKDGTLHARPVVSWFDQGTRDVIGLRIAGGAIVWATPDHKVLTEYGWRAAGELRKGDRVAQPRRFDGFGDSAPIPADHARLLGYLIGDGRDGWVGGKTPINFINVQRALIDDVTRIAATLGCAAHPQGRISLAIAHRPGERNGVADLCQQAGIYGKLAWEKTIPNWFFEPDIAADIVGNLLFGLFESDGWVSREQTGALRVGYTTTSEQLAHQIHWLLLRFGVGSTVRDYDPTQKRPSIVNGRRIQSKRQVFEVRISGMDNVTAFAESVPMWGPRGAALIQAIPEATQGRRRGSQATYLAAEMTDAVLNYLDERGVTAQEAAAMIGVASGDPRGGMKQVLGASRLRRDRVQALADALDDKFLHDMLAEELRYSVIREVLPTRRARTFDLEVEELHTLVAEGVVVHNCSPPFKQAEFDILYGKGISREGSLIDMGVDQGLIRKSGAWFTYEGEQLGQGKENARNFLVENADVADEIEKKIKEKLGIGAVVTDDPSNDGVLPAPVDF

[1] = inhibitors of intracellular T. cruzi replication, confirmation, NIH3T3 host cells, beta-gal luminescence (AID 2044); format: functional, cell-based;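 further: intracellular parasites grown in NIH/3T3 mouse fibroblasts as host cells; luminescent beta-galactosidase reporter signal from transgenic T. cruzi replicating inside host cells; inhibitors lower the luminescence signal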
[2] = molecular target: T2, Replicative DNA helicase DnaB (Mycobacterium tuberculosis, UniProt P9WMR3); experiment: DnaB intein splicing inhibitors, dose response, biochemical, cell-free fluorescence (AID 449749); format: functional
T2 sequence (P9WMR3 whole entry): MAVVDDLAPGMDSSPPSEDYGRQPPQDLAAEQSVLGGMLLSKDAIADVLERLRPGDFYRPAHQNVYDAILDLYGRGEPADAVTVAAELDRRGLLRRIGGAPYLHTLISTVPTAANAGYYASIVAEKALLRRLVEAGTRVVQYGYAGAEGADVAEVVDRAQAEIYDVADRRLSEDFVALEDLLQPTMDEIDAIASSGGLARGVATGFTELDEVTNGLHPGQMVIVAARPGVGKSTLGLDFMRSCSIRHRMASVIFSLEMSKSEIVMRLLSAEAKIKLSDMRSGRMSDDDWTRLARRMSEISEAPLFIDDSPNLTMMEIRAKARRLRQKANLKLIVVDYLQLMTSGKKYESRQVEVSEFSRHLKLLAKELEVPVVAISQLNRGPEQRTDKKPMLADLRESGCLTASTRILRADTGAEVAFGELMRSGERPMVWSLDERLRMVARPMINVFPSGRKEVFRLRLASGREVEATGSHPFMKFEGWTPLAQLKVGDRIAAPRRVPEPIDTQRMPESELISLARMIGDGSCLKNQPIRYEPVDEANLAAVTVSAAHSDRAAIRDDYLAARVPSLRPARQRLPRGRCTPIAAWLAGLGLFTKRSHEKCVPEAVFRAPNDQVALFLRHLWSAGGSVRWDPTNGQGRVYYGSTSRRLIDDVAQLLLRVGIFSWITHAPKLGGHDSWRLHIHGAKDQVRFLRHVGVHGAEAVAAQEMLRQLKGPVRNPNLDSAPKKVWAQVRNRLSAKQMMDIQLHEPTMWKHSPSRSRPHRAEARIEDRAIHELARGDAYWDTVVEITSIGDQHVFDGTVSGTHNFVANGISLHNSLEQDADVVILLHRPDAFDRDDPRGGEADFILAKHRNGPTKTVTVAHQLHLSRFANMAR

[3] = cytotoxicity toward NIH3T3 fibroblasts, dose response, counter-screen, cell-based, ATP luminescence, mouse fibroblasts (AID 2010); format: functional;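 further: cells exposed to compound for about 90 hours before reading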
[4] = HEp-2 cell cytotoxicity, dose response, cytotoxicity control for RSV inhibitor project, HTS (AID 2410); format: functional; details: human respiratory syncytial virus
[5] = molecular target: T3, Zinc finger protein mex-5 (Caenorhabditis elegans, UniProt Q9XUB2); experiment: MEX-5/TCR-2 RNA interaction inhibitors, dose response, biochemical, C. elegans, fluorescence polarization (AID 1960)
T3 sequence (Q9XUB2 whole entry): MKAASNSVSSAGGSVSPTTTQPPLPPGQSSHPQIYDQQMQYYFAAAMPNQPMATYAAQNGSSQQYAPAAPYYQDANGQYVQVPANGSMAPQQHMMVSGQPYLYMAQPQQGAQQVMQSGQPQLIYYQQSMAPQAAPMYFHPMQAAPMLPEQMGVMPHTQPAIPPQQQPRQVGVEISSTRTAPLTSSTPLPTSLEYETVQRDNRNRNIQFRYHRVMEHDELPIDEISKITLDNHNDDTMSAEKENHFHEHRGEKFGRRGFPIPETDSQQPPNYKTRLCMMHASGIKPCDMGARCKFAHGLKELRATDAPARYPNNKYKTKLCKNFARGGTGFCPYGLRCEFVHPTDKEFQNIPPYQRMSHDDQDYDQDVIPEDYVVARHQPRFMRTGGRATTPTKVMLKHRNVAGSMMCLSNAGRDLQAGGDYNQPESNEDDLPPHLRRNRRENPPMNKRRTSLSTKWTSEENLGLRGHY

[6] = molecular target: T4, RNA-binding protein pos-1 (Caenorhabditis elegans, UniProt G5EF15); experiment: inhibitors of POS-1/mex-3 RNA binding, dose response, biochemical, fluorescence polarization (AID 1964);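 further: purified POS-1 fused to maltose binding protein made in E. coli; potency of compounds blocking POS-1 binding to fluorescent RNA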
T4 sequence (G5EF15 whole entry): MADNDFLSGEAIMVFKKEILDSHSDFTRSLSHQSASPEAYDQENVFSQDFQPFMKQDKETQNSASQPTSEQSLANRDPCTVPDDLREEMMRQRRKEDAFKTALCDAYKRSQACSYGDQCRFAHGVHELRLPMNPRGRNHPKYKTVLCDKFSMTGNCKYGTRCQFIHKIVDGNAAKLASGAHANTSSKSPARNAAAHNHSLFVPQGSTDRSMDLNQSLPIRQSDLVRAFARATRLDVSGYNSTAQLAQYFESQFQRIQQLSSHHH

[7] = molecular target: FAD-linked sulfhydryl oxidase ALR (Homo sapiens, UniProt P55789); experiment: inhibitors of human ALR sulfhydryl oxidase, dose response, biochemical, H2O2 detection, luminescence, cherry-pick (AID 493248)
[8] = microbe, parasite or virus in culture; format: functional; details: Mycobacterium tuberculosis
[9] = Luminescence Cell-Based Dose Confirmation HTS to Identify Activators of 5'UTR Stem-Loop Driven Alpha-Synuclein mRNA Translation in H4 Neuroglioblastoma Cells. [Related pubchem assays: 1829 (Project Summary), 1814 (Primary HTS)]; format: functional
[10] = Luminescence Cell-Based Dose Response HTS to Identify Activators of Luciferase Translation or Activity in H4 […] Cells. [Related pubchem assays: 1829 (Project Summary), 1814 (Primary HTS)]; format: functional
H4 = experiment: Luminescence Cell-Based Dose Response HTS to Identify Activators of 5'UTR Stem-Loop Driven Prion Protein mRNA Translation in H4 Neuroglioblastoma Cells. [Related pubchem assays: 1829 (Project Summary), 1814 (Primary HTS)]; format: functional; details: Homo sapiens
[11] = molecular target: T5, Heat shock factor protein 1 (Mus musculus, UniProt P38532); experiment: inhibition of MG132-induced HSE-luciferase signal, confirmation, cell-based, NIH3T3, luminescence, dose retest (AID 2382); format: functional;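 further: NIH3T3 fibroblasts with HSF1-driven luciferase reporter stressed by proteasome inhibitor MG132; luminescence from HSF1-driven luciferase expression after 8 hours of MG132 stress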
T5 sequence (P38532 whole entry): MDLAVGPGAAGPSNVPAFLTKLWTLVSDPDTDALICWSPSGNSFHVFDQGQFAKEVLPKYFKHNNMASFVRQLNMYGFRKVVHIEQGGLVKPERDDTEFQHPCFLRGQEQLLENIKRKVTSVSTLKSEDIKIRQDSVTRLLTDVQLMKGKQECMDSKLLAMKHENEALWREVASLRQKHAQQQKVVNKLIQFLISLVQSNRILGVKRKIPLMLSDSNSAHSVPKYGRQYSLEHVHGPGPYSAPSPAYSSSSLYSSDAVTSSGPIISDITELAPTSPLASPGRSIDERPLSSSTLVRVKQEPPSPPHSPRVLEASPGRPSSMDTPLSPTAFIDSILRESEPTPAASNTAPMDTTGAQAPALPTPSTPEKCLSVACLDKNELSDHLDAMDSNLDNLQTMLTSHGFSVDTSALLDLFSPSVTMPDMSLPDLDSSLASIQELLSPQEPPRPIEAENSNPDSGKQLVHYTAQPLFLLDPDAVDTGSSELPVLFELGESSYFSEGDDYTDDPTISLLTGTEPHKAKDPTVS

[12] = molecular target: T6, Polyadenylate-binding protein 1 (Homo sapiens, UniProt P11940); experiment: PABP1 MLLE–PAM2 interaction inhibitors, dose response, miRNA deadenylation inhibitor project, biochemical, fluorescence polarization, Cy5-PAM2 peptide, secondary (AID 602260); format: functional; details: read-out: IC50_Mean
[13] = molecular target: T6, Polyadenylate-binding protein 1; experiment: PABP1 MLLE–PAM2 binding inhibitor potency, dose response, biochemical, fluorescence polarization, FITC-PAM2 peptide (AID 602259); format: functional; details: read-out: IC50_Mean

FAD-linked sulfhydryl oxidase ALR, sequence (P55789 whole entry): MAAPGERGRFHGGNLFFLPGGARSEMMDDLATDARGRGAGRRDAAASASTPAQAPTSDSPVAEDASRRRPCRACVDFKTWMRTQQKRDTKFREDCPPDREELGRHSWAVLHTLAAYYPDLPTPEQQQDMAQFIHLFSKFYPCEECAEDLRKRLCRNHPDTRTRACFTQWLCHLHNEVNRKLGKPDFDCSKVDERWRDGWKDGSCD
T6 sequence (P11940 whole entry): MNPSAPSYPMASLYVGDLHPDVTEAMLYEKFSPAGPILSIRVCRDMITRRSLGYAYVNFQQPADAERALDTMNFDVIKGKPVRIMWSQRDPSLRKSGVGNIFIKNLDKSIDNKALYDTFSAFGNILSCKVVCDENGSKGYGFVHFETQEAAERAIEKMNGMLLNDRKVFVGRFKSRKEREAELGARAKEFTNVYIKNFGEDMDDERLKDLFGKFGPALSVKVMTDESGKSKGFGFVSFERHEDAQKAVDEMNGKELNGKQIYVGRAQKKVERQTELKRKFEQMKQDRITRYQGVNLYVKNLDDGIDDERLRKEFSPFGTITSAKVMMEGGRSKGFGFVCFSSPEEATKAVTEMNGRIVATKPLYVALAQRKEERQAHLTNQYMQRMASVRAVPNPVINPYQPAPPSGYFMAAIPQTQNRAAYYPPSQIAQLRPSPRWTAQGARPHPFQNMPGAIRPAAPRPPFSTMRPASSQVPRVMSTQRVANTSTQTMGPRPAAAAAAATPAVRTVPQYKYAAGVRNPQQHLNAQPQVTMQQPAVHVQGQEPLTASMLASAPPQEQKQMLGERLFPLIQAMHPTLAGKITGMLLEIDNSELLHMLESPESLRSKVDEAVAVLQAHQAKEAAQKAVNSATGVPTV

## CC(=O)N(C)Cc1ccc(C(=O)CCl)cc1
Protein RecA
  EC50: 19.4 µM (active)
[1]
  EC50: 2.51 µM (active)
[2]
  AC50: 56.2 µM (active)
[3]
  EC50: 3.7 µM (active)

## CCN(CC)C(=O)c1ccc2c(c1[N+](=O)[O-])C(=O)c1ccccc1C2=O
Protein RecA
  EC50: > 380 µM (inactive)
[2]
  AC50: > 380 µM (inactive)

## CCN(CC)CCN(Cc1cc2ccc(C)c(C)c2nc1O)C(S)=NCc1ccco1
[4]
  CC50: > 50 µM (active)
[5]
  EC50: > 300 µM (not active)
[6]
  EC50: > 300 µM (not active)

## CCOC(=O)CSc1nnc(NCC(=O)OC(C)C)c(=O)[nH]1
Protein RecA
  EC50: 9.44 µM (active)
[2]
  AC50: 3.45 µM (active)

## O=C(O)CCc1ccc(-c2ccccc2)n1-c1ccc(C(=O)O)cc1
[5]
  EC50: > 300 µM (not active)
[6]
  EC50: > 300 µM (not active)

## COc1ccc(CCSc2nnc(C3CCCCC3)n2N)cc1
[7]
  AC50: 2.81 µM (active)

## O=C(Nc1cccc(-c2cn3ccccc3n2)c1)c1ccccc1
[7]
  AC50: 2.89 µM (active)

## Nc1cc(C(=O)O)ccc1Nc1ccc(F)c(F)c1
[7]
  AC50: 0.345 µM (active)

## O=C(c1cnn2c(C(F)F)cc(-c3ccccc3)nc12)N1CCc2ccccc2C1
[8]
  CC50: > 40 µM (active)

## CN1C(=O)C(=Cc2cn(CC(=O)N3CCCC3)c3ccccc23)C(=O)N(C)C1=O
[5]
  EC50: > 300 µM (not active)
[6]
  EC50: > 300 µM (not active)

## CCN(CC)C(=O)Cn1cc(C(=O)C(=O)N2CCc3ccccc32)c2ccccc21
[5]
  EC50: > 300 µM (not active)
[6]
  EC50: > 300 µM (not active)

## CN1CCN(Cn2cc(/C=C/C(=O)c3ccccc3)c3ccccc32)CC1
[9]
  EC50: 0.233 µM (active)
[10]
  EC50: 0.148 µM (active)
[8]
  CC50: > 40 µM (active)
H4
  EC50: 18.9 µM (active)

## O=C(Nc1cc(Oc2ccccc2)cc([N+](=O)[O-])c1)C12CC3CC(C1)CC(n1cnc(Cl)n1)(C3)C2
[1]
  EC50: 1.51 µM (active)
[8]
  CC50: > 40 µM (active)
[3]
  EC50: > 60 µM (not active)

## Sc1nnc(-c2ccc(Cl)cc2)n1-c1ccc(Cl)cc1
[7]
  AC50: 4.74 µM (active)

## COc1c(/C=C2/C(=O)NC(=O)N(C)C2=O)c(CCN(C)C(=O)c2ccccc2)cc2c1OCO2
[5]
  EC50: > 300 µM (not active)
[6]
  EC50: > 300 µM (not active)

## Cc1noc(C)c1COC(=O)Cc1ccc(Br)cc1
Protein RecA
  EC50: > 380 µM (inactive)
[2]
  AC50: 124 µM (active)

## COC(=O)C1CSc2[nH]c(=O)sc2C1c1ccc(OC)c(OC)c1 (stereo not drawn)
[5]
  EC50: > 300 µM (not active)
[6]
  EC50: > 300 µM (not active)

## COC(=O)c1nnc(NC(=O)c2ccc(C(C)(C)C)cc2)[nH]1
[11]
  EC50: > 195 µM (not active)
Protein RecA
  EC50: 10.1 µM (active)
[2]
  AC50: 3.57 µM (active)

## CCCCCc1ccc(S(=O)(=O)NCCc2ccncc2)cc1
[8]
  CC50: 12.1 µM (active)

## CC1(C)Nc2ccccc2N(Cc2ccc([N+](=O)[O-])cc2)C1=O
[7]
  AC50: 3.92 µM (active)

## CCCOc1ccc(/C=c2\sc3nc(-c4ccco4)nn3c2=O)cc1OCC
[5]
  EC50: > 300 µM (not active)
[6]
  EC50: > 300 µM (not active)

## COc1cc(/C=N/Nc2nc(O)nnc2C)cc([N+](=O)[O-])c1O
[5]
  EC50: 10.8 µM (inconclusive)
[6]
  EC50: 7.98 µM (active)

## COc1c(O)cccc1[C@H](O)C1CCN(CCc2ccc(F)cc2)CC1
[12]
  IC50: > 66 µM (inactive)
[13]
  IC50: 36.9 µM (inactive)
[5]
  EC50: 13.7 µM (active)
[6]
  EC50: 14.4 µM (active)
